Patent US5338752A, “Substituted 2-imidazolone derivatives, their preparation and pharmaceutical compositions” (SK&F Laboratories Ltd., priority 1990, dated 1994)

Experiments:
[1] = tested on: washed human platelets; assay: Aggregation of washed human platelets (stimulus 1 μM U46619); type: cell-based; conditions: Platelet; aspirin-treated washed human platelets; compound added 2 min before 1 μM U46619; assessed 4 min after stimulus; 37° C.
Description: METHOD FOR MEASUREMENT OF AGGREGATION OF WASHED HUMAN PLATELETS
Platelets were prepared from freshly drawn human blood. Blood was collected into acid citrate anticoagulant, centrifuged (5 min at 500 g), and the upper layer of platelet-rich plasma was removed. This platelet-rich plasma was incubated with aspirin (100 μM) for 10 min at 37° C. and then centrifuged (15 min at 200 g). The platelet pellet was resuspended (at approx. 1.5×10^8 cells/ml) in medium containing NaCl (145 mM), KCl (5 mM), MgCl2 (1 mM), CaCl2 (0.2 mM), Hepes (10 mM, ph 7.4 at 37° C.), glucose (10 mM), apyrase (10 μg/ml). Aggregation was monitored (as a change in optical density) at 37° C. in a 4 channel aggregometer (PAP-4 from Biodata Corp.). Fibrinogen (1 mg/ml) and CaCl2 (1 mM) were added to aliquots of platelets that were continuously stirred. The test compound (or 0.1% DMSO vehicle) was added 2 min before the aggregatory stimulus (1 μM U46619). The extent of aggregation was assessed 4 min after addition of the stimulus, and was calculated as % of the control response in the absence of test compound. Dose-response curves were constructed for measurement of IC50 values for each compound.

[2] = biological target: T1, [^3 H]iloprost binding to human platelet membranes (Homo sapiens, UniProt P43119); assay: Inhibition of [^3 H]iloprost binding to human platelet membranes; conditions: [^3 H]iloprost 10 nM; pH 7.4; 30 min at 37° C.; calculated from IC50 for displacement
T1 construct: Membranes were prepared from outdated platelet-rich plasma concentrates obtained from the Blood Transfusion Service; from tissue; host or cells: human platelets (outdated platelet-rich plasma concentrates from the Blood Transfusion Service)
T1 sequence (P43119 whole entry, the tested form may be a part): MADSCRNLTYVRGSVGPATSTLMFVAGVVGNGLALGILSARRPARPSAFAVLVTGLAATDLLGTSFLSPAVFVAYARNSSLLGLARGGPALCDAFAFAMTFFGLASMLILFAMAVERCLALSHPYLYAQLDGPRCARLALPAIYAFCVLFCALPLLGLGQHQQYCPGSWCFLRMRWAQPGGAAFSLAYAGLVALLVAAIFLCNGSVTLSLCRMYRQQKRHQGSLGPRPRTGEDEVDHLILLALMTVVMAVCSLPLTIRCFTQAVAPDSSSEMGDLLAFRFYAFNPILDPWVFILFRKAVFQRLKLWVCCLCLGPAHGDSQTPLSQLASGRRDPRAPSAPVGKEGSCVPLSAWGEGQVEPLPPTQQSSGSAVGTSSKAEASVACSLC
Description: METHOD FOR MEASUREMENT OF KI FOR INHIBITION OF [^3 H]ILOPROST BINDING TO HUMAN PLATELET MEMBRANES
Membranes were prepared from outdated platelet-rich plasma concentrates obtained from the Blood Transfusion Service. The platelets were homogenised in buffer containing Tris-Cl (5 mM, pH 7.4 at 20° C.) and EDTA (0.25 mM), and then centrifuged (10 min at 26,000 g). The membrane pellet was washed twice by homogenisation in buffer containing Tris-Cl (50 mM, pH 7.4 at 20° C.) and EDTA (0.25 mM), followed by centrifugation. For measurement of [^3 H]iloprost binding, membranes (0.4-0.8 mg) were incubated in the presence of Tris-Cl (50 mM, pH 7.4 at 20° C.), MgCl2 (4 mM), EDTA (40 μM), […] (10 nM), DMSO (1.85%), and varying concentrations of the test compounds. For determination of non-specific binding, 20 μM iloprost was included. The tubes (triplicates for each condition) were set up on ice, and then incubated for 30 min at 37° C. The incubations were terminated by rapid filtration on Whatman GF/B filters using a Brandel Harvester. The filters were washed and then counted for radioactivity. The Ki of the test compounds for inhibition of binding of [^3 H] iloprost to human platelet membranes was calculated from the IC50 for displacement of [^3 H]iloprost binding.

SMILES: O=c1n(CCCCCCCS(=O)(=O)O)c(-c2ccccc2)c(-c2ccccc2)n1-c1ccccc1 [Example 1, Sodium 7(3,4,5-triphenyl-2-oxo-2,3-dihydroimidazol-1-yl)-heptanesulphonate]
- IC50 [1]: 0.25 µM
- Ki [2]: 8 µM

SMILES: CCOP(=O)(CCCCCCCn1c(-c2ccccc2)c(-c2ccccc2)n(-c2ccccc2)c1=O)OCC [Example 2, Diethyl 7-(3,4,5-triphenyl-2-oxo-2,3-dihydroimidazol-1-yl)heptanephosphonate]
- IC50 [1]: 5.5 µM
- Ki [2]: 30 µM

SMILES: O=c1n(CCCCCCCP(=O)(O)O)c(-c2ccccc2)c(-c2ccccc2)n1-c1ccccc1 [Example 3, 7-(3,4,5-Triphenyl-2-oxo-2,3-dihydroimidazol-1-yl)-heptanephosphonic acid]
- IC50 [1]: 43 µM
- Ki [2]: 1.29 µM

SMILES: CCOP(C)(=O)CCCCCCCn1c(-c2ccccc2)c(-c2ccccc2)n(-c2ccccc2)c1=O (centres unmarked) [Example 4, Ethyl 7-(3,4,5-triphenyl-2-oxo-2,3-dihydroimidazol-1-yl)methylphosphinate]
- IC50 [1]: 21 µM
- Ki [2]: 19 µM
